“Also recorded” adds a separate entry of the source.
Experiments:
[1] = cited from earlier work
[2] = test system: cancer cell lines; details: in vitro; cited from earlier work
[3] = Relative humidity stability at ambient temperature, analyzed by XRPD; format: physicochemical
Excerpt: Upon completion of the duration allowed, the samples were immediately analyzed by XRPD.

[4] = cited from earlier work; remark: listed apart in the source
[5] = Slurrying in water, resulting solid form; format: physicochemical; details: for result of slurrying in water: three days
[6] = Intrinsic dissolution in 900 mL water at ambient conditions (attempted); format: physicochemical; details: after 30 minutes
Description: Intrinsic dissolution in 900 mL water at ambient conditions was also attempted. […] Therefore, a concentration vs. time and intrinsic dissolution rate value were unobtainable at these conditions.

[7] = test system: hyperglycemic rats; details: cited from earlier work

## COc1cc(/C=C/c2ccc(O)cc2)cc(OC)c1 [pterostilbene, trans-3,5-dimethoxy-4′-hydroxystilbene]
[1]
  solubility in water: poor solubility in water
[2]
  cytotoxic activity against cancer cell lines: cytotoxic activity
[3]; 75% RH, 4 weeks
  Results: pterostilbene (Form I)
[3]; 94% RH, 4 weeks
  Results: pterostilbene (Form I)
[3]; 98% RH, 4 weeks
  Results: pterostilbene (Form I)
[4]
  bioavailability: poor bioavailability

## Cn1c(=O)c2c(ncn2C)n(C)c1=O [caffeine]
[3]; 75% RH, 1 week
  Results: caffeine anhydrous
[3]; 75% RH, 4 weeks
  Results: does not display signs of conversion; also recorded: caffeine anhydrous
[3]; 75% RH, 1 day
  Results: caffeine anhydrous
[3]; 75% RH, 3 days
  Results: caffeine anhydrous
[3]; 94% RH, 1 week (7 days)
  Results: caffeine hydrate
[3]; 94% RH, 4 weeks
  Results: caffeine hydrate
[3]; 94% RH, 1 day
  Results: caffeine anhydrous
[3]; 94% RH, 3 days
  Results: caffeine anhydrous/caffeine hydrate
[3]; 94% RH, between one and three days
  conversion to hydrate: partial conversion
[3]; 98% RH, 1 week
  Results: caffeine hydrate
[3]; 98% RH, 4 weeks
  Results: caffeine hydrate
[3]; 98% RH, 1 day
  Results: caffeine hydrate
[3]; 98% RH, 3 days
  Results: caffeine hydrate
[3]; 98% RH, in less than one day
  conversion to hydrate: converts to caffeine hydrate

## COc1cc(/C=C/c2ccc(O)cc2)cc(OC)c1.Cn1c(=O)c2c(ncn2C)n(C)c1=O [cocrystal 1, pterostilbene:caffeine]
[3]; 75% RH, 4 weeks
  Results: no dissociation
[3]; 94% RH, 4 weeks
  Results: no dissociation
[3]; 98% RH, 4 weeks
  Results: no dissociation

## pterostilbene:carbamazepine [cocrystal 2]
[5]
  result of slurrying in water: stable

## pterostilbene:glutaric acid [cocrystal 3]
[5]; after 5 minutes
  XRPD results when slurrying in water at ambient: crystalline pterostilbene
[6]
  XRPD results, intrinsic dissolution: crystalline pterostilbene
[3]; 75% RH, 4 weeks
  Results: no dissociation
[3]; 94% RH, 4 weeks
  Results: no dissociation
[3]; 98% RH, 4 weeks
  Results: no dissociation

## COc1cc(/C=C/c2ccc(O)cc2)cc(OC)c1.Cn1c(=O)c2c(ncn2C)n(C)c1=O [cocrystal 1 (Form I), pterostilbene:caffeine]
[5]; slurry, 2 days
  Results: cocrystal 1 (Form I), no caffeine hydrate
[5]
  result of slurrying in water: precipitation of pterostilbene
[3]; 75% RH, 1 week
  Results: cocrystal 1 (Form I), no caffeine hydrate
[3]; 75% RH, 1 week, additional stress at 98% RH
  Results: cocrystal 1 (Form I), no caffeine hydrate
[3]; 75% RH, 4 weeks
  Results: cocrystal 1 (Form I), no caffeine hydrate
[3]; 75% RH, 1 day
  Results: cocrystal 1 (Form I), no caffeine hydrate
[3]; 75% RH, 1 day, additional stress at 98% RH
  Results: cocrystal 1 (Form I), no caffeine hydrate
[3]; 75% RH, 3 days
  Results: cocrystal1 (Form I), no caffeine hydrate
[3]; 94% RH, 1 week (7 days)
  Results: cocrystal 1 (Form I), no caffeine hydrate
[3]; 94% RH, 4 weeks
  Results: cocrystal 1 (Form I), no caffeine hydrate
[3]; 94% RH, 1 day
  Results: cocrystal 1 (Form I), no caffeine hydrate
[3]; 94% RH, 3 days
  Results: cocrystal 1 (Form I), no caffeine hydrate
[3]; 94% RH, 7 days, additional stress at 98% RH, 4 weeks
  Results: cocrystal 1 (Form I), no caffeine hydrate

## CN(C)C(=N)N=C(N)N [metformin]
[7]
  decreased plasma glucose levels: 48%

— US8513236B2 (Laurus Labs Private Limited, priority 2010, dated 2013)
